Test results published in patent publication US20040034222A1, “2,4 diamino-1,3,5-triazines, processes for their preparation and their use as herbicides and plant growth regulators” (priority 1999, published 2004).

Columns and labels:
Format in all cases: in vivo
[1] = tested on: Stellaria media, Lolium multiflorum, Amaranthus retroflexus, Sinapis arvensis, Avena fatua and Setaria viridis; experiment: Pre-emergence effect on weeds (greenhouse pot test); conditions: application rate of 1 kg and less of active substance per hectare; scored after 3 to 4 weeks by comparison with untreated controls
Source text: Seeds or rhizome pieces of monocotyledonous and dicotyledonous weed plants are placed in sandy loam soil in plastic pots and covered with soil. The compounds according to the invention which are formulated in the form of wettable powders or emulsion concentrates were then applied to the surface of the soil cover in the form of aqueous suspensions or emulsions at an application rate of 600 to 800 l of water/ha (converted), in various dosages.
After the treatment, the pots are placed in a greenhouse and kept under good growth conditions for the weeds. After the test plants had emerged, the damage to the plants or the negative effect on the emergence was scored visually after a test period of 3 to 4 weeks by comparison with untreated controls. As shown by the test results, compounds according to the invention have good herbicidal pre-emergence activity against a broad spectrum of weed grasses and broad-leafed weeds.

[2] = tested on: Stellaria media, Lolium multiflorum, Amaranthus retroflexus, Sinapis arvensis, Avena fatua und Setaria viridis; experiment: Post-emergence effect on weeds (greenhouse pot test); conditions: application rate of 1 kg and less of active substance per hectare; treated at three-leaf stage; scored after about 3 to 4 weeks by comparison with untreated controls
Protocol: Seeds or rhizome pieces of monocotyledonous and dicotyledonous weeds were placed in sandy loam soil in plastic pots, covered with soil and grown in a greenhouse under good growth conditions. Three weeks after sowing, the test plants were treated at the three-leaf stage. The compounds according to the invention which were formulated as wettable powders or emulsion concentrates were sprayed, at various dosages, onto the, green parts of the plants at an application rate of 600 to 800 l of water/ha (converted). After the test plants had remained in the greenhouse for about 3 to 4 weeks under optimum growth conditions, the effect of the preparations was scored visually by comparison with untreated controls. The agents according to the invention also have good herbicidal activity post-emergence against a broad spectrum of economically important weed grasses and broad-leafed weeds.

[3] = tested on: harmful plants which are typical for rice crops, for example Cyperus iria and Echinochloa crus-galli; experiment: Action on harmful plants in rice (paddy rice conditions); conditions: applied into the dammed water, different dosages, scored about three weeks after application
Source text: Transplanted and sown rice and also typical rice weeds (gramineous and broad-leaved) are cultivated in closed plastic pots in a greenhouse to the three-leaf stage (Echinochloa crus-galli 1.5-leaf) under paddy rice conditions (dammed height of water: 2-3 cm). This is followed by treatment with the novel compounds. For this purpose, the formulated active compounds are suspended, dissolved or emulsified in water and applied by pouring them into the dammed water around the test plants in different dosages. After this treatment, the test plants are set up in a greenhouse under optimum growth conditions and are maintained in this way throughout the test period.
About three weeks after application, evaluation is made by visual scoring of the damage to the plants by comparison with untreated controls.

Cc1cccc(OCC(Nc2nc(N)nc(C(F)(F)C(F)F)n2)C2CCCC2)c1 (racemic) [Example 110, 2-Amino-4-(1,1,2,2-tetrafluoroethyl)6-{N-[1-cyclopentyl-2-(3-methylphenoxy)ethyl]amino}-1,3,5-triazine]
very good herbicidal activity: herbicidal activity pre-emergence (damage to the plants or negative effect on emergence, scored visually) [1] | herbicidal activity post-emergence (scored visually) [2] | herbicidal activity against harmful plants typical for rice crops (visual scoring of damage) [3]

CC(C)(F)c1nc(N)nc(NC(COc2ccccc2)C2CCC2)n1 (racemic) [Example 178, 2-Amino4-(1-fluoro-1-methylethyl)-6-[N-(1-cyclobutyl-2-phenoxyethyl)-amino]-1,3,5-triazine]
very good herbicidal activity: herbicidal activity pre-emergence (damage to the plants or negative effect on emergence, scored visually) [1] | herbicidal activity post-emergence (scored visually) [2] | herbicidal activity against harmful plants typical for rice crops (visual scoring of damage) [3]
